In US20210155604A1, “QUINAZOLINE COMPOUND SERVING AS EGFR TRIPLE MUTATION INHIBITOR AND APPLICATIONS THEREOF” (EAST CHINA UNIVERSITY OF SCIENCE AND TECHNOLOGY, priority 2018, published 2021) one finds IC50 and melting point data, which are given here for 23 compounds.

The target of one data set is EGFR(WT) (Homo sapiens, UniProt P00533). Put plainly: ELISA kinase activity detection, EGFR(WT). The following applies: ELISA-based EGFR-TK assay, ATP 5 μM; mean ± SD of at least two determinations. It is filed as biochemical. Here is the method: (§1) Tyrosine kinase: EGFR(WT) • EGFR^T790M/L858R(LR/TM) • EGFR^T790M/L858R/[…](LR/TM/CS)
(§2) ELISA Kinase Activity Detection
Enzyme-Linked Immunosorbent Assay (ELISA) was used to detect the ability of a kinase to phosphorylate a substrate and calculate the inhibitory effect of a compound on the kinase activity. […]
(§3) The main steps of ELISA are listed as follows: the substrate Poly(Glu, Tyr) 4:1 was diluted with potassium ion-free PBS to 2.5 μg/well, incubated at 37° C. for 12-16 h to coat the ELISA plate for use. An ATP solution (final concentration of 5 μM) diluted with a reaction buffer (50 mM HEPES pH 7.4, 20 mM MgCl2, 0.1 mM MnCl2, 0.2 mM Na3VO4, 1 mM DTT) was added to each well. A compound or solvent control was added, and then a kinase was added to start the reaction at 37° C. in a shaker for 1 h. The plate was washed for three times with T-PBS, and 100 μL of antibody PY99 (diluted in T-PBS containing 5 mg/mL BSA, 1: 500) was added, and incubated in a shaker at 37° C. for 0.5 h. After washing the plate with T-PBS, 100 μL of horseradish peroxidase-labeled goat anti-mouse IgG (diluted in T-PBS containing 5 mg/mL BSA, 1: 2000) was added, and incubated in a shaker at 37° C. for 0.5 h. After washing the plate again, a developing liquid containing 0.03% H2O2, 2 mg/mL OPD (0.1 mol/L, in citrate buffer solution pH 5.4) was added at 100 μL/well, and incubated for 1-10 min at 25° C. in darkness. 50 μL/well of 2 M H2SO4 was added to quench the reaction, and read with a wavelength-tunable microplate reader (SpectraMax Plus384, Molecular Devices) at a wavelength of 490 nm. The IC50 value was obtained from the inhibition curve.
In general terms: ELISA stands for enzyme-linked immunosorbent assay.

Another data set addresses EGFR L858R/T790M (LR/TM) (Homo sapiens, UniProt P00533, L858R/T790M). Put plainly: ELISA kinase activity detection, EGFR double mutant. In kind it is biochemical. To be noted: ELISA-based EGFR-TK assay, ATP 5 μM, mean ± SD.
Data set [1] deals with T1, EGFR L858R/T790M/C797S (LR/TM/CS) (Homo sapiens, UniProt P00533, C797S/L858R/T790M).
T1 construct: purchased BPS Bioscience
Put plainly: ELISA kinase activity detection, EGFR triple mutant. In kind it is biochemical. The following applies: ELISA-based EGFR-TK assay, ATP 5 μM, mean ± SD. The method, then: as §1, §2
Enzyme-Linked Immunosorbent Assay (ELISA) was used to detect the ability of a kinase to phosphorylate a substrate and calculate the inhibitory effect of a compound on the kinase activity. The used kinase was EGFR L858R/T790M/C797S (purchased from BPS Bioscience).
as §3

SMILES strings stand for the structures.

Sequence of EGFR L858R/T790M (LR/TM) (P00533 25-1210 T790M/L858R): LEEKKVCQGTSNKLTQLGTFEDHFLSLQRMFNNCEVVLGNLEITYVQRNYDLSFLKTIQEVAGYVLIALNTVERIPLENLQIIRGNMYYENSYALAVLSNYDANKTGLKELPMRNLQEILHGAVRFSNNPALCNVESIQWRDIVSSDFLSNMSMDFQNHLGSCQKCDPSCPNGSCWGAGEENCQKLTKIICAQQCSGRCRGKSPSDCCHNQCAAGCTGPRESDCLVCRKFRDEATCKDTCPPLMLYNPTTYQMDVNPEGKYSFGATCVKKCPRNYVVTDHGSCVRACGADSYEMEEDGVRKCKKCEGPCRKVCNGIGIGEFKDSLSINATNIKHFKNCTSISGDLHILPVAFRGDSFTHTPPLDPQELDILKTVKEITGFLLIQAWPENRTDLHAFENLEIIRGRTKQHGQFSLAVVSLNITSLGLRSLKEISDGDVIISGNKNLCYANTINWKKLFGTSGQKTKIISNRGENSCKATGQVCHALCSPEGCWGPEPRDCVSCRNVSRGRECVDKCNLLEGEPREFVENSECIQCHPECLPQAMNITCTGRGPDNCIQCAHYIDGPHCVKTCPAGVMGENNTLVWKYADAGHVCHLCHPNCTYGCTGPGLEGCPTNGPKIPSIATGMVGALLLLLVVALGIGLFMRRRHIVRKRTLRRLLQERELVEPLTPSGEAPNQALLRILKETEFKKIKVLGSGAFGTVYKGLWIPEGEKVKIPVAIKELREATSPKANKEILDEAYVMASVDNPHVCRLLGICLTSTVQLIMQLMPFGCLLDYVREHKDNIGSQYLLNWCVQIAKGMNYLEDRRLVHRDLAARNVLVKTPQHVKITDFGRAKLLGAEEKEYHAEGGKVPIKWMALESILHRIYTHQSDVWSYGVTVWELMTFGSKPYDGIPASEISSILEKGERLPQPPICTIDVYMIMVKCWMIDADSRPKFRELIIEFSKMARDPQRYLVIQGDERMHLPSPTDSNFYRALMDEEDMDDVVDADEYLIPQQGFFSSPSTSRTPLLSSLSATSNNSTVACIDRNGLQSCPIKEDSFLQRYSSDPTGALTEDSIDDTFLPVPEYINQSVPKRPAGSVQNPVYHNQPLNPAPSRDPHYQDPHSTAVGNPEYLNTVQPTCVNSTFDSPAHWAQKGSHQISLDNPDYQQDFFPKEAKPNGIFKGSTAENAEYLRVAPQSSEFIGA
T1 sequence (P00533 25-1210 T790M/C797S/L858R): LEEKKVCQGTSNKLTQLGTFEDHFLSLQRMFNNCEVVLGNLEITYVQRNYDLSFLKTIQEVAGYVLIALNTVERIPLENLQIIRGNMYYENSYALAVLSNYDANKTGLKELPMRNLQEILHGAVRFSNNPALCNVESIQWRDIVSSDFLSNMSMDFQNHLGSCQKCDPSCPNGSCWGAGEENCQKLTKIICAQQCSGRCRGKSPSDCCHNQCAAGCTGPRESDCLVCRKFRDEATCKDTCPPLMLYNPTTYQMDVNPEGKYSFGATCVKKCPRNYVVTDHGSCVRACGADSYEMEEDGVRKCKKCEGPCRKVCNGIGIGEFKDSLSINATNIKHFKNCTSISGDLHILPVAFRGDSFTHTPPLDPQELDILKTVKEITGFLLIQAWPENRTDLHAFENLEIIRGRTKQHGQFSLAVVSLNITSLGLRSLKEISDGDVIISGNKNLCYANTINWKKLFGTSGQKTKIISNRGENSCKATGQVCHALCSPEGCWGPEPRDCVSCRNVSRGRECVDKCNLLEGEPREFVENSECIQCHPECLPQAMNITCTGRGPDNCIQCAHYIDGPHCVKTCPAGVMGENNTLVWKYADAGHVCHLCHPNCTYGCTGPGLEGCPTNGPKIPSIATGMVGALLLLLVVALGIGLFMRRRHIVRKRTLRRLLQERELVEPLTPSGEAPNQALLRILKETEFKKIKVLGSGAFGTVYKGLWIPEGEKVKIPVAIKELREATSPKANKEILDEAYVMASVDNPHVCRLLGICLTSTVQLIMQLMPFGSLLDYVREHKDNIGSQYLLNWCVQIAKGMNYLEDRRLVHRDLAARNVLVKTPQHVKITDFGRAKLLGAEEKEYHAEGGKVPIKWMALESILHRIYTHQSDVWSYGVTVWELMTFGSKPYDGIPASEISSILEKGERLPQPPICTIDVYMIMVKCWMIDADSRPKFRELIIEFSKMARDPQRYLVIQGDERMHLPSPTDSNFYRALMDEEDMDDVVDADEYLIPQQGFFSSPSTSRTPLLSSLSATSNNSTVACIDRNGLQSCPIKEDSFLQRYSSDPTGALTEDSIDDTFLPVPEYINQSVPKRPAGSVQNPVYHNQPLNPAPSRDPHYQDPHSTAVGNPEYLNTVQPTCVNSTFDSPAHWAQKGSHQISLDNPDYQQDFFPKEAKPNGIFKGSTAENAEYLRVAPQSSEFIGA
Sequence of EGFR(WT) (P00533 25-1210): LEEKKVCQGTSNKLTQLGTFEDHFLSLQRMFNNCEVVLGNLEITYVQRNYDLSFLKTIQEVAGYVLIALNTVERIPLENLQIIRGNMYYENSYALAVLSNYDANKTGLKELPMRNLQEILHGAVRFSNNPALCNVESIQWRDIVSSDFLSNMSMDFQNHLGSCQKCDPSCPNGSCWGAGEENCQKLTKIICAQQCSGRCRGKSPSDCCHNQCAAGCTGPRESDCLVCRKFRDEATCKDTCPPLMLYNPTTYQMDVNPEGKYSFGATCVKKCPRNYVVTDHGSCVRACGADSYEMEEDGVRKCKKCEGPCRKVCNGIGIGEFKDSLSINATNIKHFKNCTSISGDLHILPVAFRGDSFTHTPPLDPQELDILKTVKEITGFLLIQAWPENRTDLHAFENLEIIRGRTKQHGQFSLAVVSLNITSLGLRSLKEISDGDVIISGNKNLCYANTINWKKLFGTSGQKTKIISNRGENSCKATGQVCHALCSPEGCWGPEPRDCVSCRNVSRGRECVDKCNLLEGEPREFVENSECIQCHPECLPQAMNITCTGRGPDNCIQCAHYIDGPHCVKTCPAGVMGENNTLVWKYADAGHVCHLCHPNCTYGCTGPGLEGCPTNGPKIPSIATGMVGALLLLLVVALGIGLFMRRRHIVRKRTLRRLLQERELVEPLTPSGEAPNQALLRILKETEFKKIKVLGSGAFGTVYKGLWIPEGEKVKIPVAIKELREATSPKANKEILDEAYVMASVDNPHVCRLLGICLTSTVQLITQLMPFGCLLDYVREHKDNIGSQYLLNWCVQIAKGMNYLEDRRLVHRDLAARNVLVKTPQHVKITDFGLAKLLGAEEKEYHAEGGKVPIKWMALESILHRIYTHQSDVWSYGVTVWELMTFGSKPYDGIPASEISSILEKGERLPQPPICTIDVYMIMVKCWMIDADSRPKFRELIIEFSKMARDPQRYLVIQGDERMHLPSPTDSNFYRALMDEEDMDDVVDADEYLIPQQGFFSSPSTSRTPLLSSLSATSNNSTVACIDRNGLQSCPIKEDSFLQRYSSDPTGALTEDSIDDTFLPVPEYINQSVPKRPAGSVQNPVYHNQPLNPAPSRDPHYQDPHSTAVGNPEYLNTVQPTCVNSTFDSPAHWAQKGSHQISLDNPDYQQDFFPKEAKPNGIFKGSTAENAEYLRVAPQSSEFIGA

As a reminder, the IC50 is the point on the concentration scale where inhibition reaches its midpoint. `COc1cc2c(Nc3ccc(NC(=O)c4ccccc4)cc3F)ncnc2cc1OCC1CCN(C)CC1` [Example 1]: the values for the IC50 (on EGFR(WT); against EGFR L858R/T790M (LR/TM); in data set [1]) were 59.9 ± 1.8 nM, 6630 ± 657 nM and greater than 10000 nM, respectively.

As to `COc1cc2c(Nc3cc(NC(=O)c4ccccc4)ccc3F)ncnc2cc1OCC1CCN(C)CC1` [Example 2, N-(4-Fluoro-3-((6-methoxy-7-((1-methylpiperidin-4-yl)methoxy)quinazolin-4-yl)amino)phenyl)benamide], the IC50 on EGFR(WT) was 53.7 ± 13.8 nM; on EGFR L858R/T790M (LR/TM), greater than 10000 nM; in data set [1], greater than 10000 nM.

In the case of `COc1cc2c(Nc3ccc(NC(=O)Cc4ccccc4)cc3F)ncnc2cc1OCC1CCN(C)CC1` [Example 3, N-(3-Fluoro-4-((6-methoxy-7-((1-methylpiperidin-4-yl)methoxy)quinazolin-4-yl)amino)phenyl)-2-phenylacetamide], the results for the concentration for half-maximal inhibition (IC50) (against EGFR(WT); on EGFR L858R/T790M (LR/TM); in data set [1]) were 3.7 ± 1.6 nM, 7560 ± 1200 nM and greater than 10000 nM, respectively.

For the compound `COc1cc2c(Nc3cc(NC(=O)Cc4ccccc4)ccc3F)ncnc2cc1OCC1CCN(C)CC1` [Example 4, N-(4-Fluoro-3-((6-methoxy-7-((1-methylpiperidin-4-yl)methoxy)quinazolin-4-yl)amino)phenyl)-2-phenylacetamide], the concentration for half-maximal inhibition (IC50) on EGFR(WT) is 1350 ± 312 nM; at EGFR L858R/T790M (LR/TM), greater than 10000 nM; in data set [1], greater than 10000 nM.

For `COc1cc2c(Nc3ccc(NC(=O)CC4Cc5ccccc5C4)cc3F)ncnc2cc1OCC1CCN(C)CC1` [Example 5], the IC50 is 68.3 ± 13 nM against EGFR(WT), 1380 ± 235 nM against EGFR L858R/T790M (LR/TM) and greater than 10000 nM in data set [1].

In the case of `COc1cc2c(Nc3cc(NC(=O)CC4Cc5ccccc5C4)ccc3F)ncnc2cc1OCC1CCN(C)CC1` [Example 6, 2-(2,3-Dihydro-1H-inden-2-yl)-N-(4-fluoro-3-((6-methoxy-7-((1-methylpiperidin-4-yl)methoxy)quinazolin-4-yl)amino)phenyl)acetamide], the IC50 on EGFR(WT) is 1100 ± 180 nM; at EGFR L858R/T790M (LR/TM), 3030 ± 689 nM; in data set [1], greater than 10000 nM.

As to `COc1cc2c(Nc3ccc(OCc4ccccc4)cc3)ncnc2cc1OCC1CCN(C)CC1` [Example 7, N-(4-(benzyloxy)phenyl)-6-methoxy-7-((1-methylpiperidin-4-yl)methoxy)quinazolin-4-amine], the IC50 at EGFR(WT) stood at 2.6 ± 1.3 nM; against EGFR L858R/T790M (LR/TM), 4630 ± 825 nM; in data set [1] it was 5570 ± 1000 nM.

For orientation: melting point means the temperature of the solid-liquid transition. The compound `COc1cc2c(Nc3ccc(NC(=O)C(C)c4ccccc4)cc3F)ncnc2cc1OCC1CCN(C)CC1` (stereo not drawn) [Example 9, N-(3-Fluoro-4-((6-methoxy-7-((1-methylpiperidin-4-yl)methoxy)quinazolin-4-yl)amino)phenyl)-2-phenylpropionamide] came in with a melting point of 199.6 to 199.8 °C. At EGFR(WT), this compound had a half-maximal inhibitory concentration (IC50) of 7.7 ± 1.8 nM. For the same compound, inhibition at EGFR L858R/T790M (LR/TM) was half-maximal at 2560 ± 800 nM (IC50). The same compound had an IC50 in data set [1] of 4810 ± 2920 nM.

Regarding `COc1cc2c(Nc3ccc(NC(=O)C(c4ccccc4)N4Cc5ccccc5C4=O)cc3F)ncnc2cc1OCC1CCN(C)CC1` (stereo not drawn) [Example 12], the IC50 at EGFR(WT) was 1.3 ± 0.3 nM; on EGFR L858R/T790M (LR/TM), 3.2 ± 0.8 nM; in data set [1], 14.5 ± 3.3 nM.

As to `COc1cc2ncnc(Nc3ccc(NC(=O)c4ccccc4)cc3F)c2cc1OC` [Example 15], the IC50 (on EGFR L858R/T790M (LR/TM); in data set [1]) was greater than 10000 nM throughout.

As for `COc1cc2ncnc(Nc3cc(NC(=O)c4ccccc4)ccc3F)c2cc1OC` [Example 16], the 50% inhibitory concentration (IC50) against EGFR(WT) is 137 ± 80.2 nM; against EGFR L858R/T790M (LR/TM), greater than 10000 nM; in data set [1] it was greater than 10000 nM.

Turning to `COc1cc2ncnc(Nc3ccc(NC(=O)C(c4ccccc4)N4Cc5ccccc5C4=O)cc3F)c2cc1OC` (stereo not drawn) [Example 17], the IC50 at EGFR(WT) was found to be 16.1 ± 4.8 nM; at EGFR L858R/T790M (LR/TM), 8.5 ± 0.7 nM; in data set [1], 37.1 ± 18.8 nM.

With `COc1cc2c(Nc3cc(NC(=O)C(c4ccccc4)N4Cc5ccccc5C4=O)ccc3F)ncnc2cc1OCC1CCN(C)CC1` (stereo not drawn) [Example 18], the results for the IC50 (against EGFR(WT); against EGFR L858R/T790M (LR/TM); in data set [1]) were 1.3 ± 0.6 nM, 3.2 ± 1.3 nM and 14.5 ± 5.2 nM, respectively.

With `COc1cc2c(Nc3ccc(NC(=O)[C@H](c4ccccc4)N4Cc5ccccc5C4=O)cc3F)ncnc2cc1OCC1CCN(C)CC1` [Example 19, (S)—N-(3-Fluoro-4-((6-methoxy-7-((1-methylpiperidin-4-yl)methoxy)quinazolin-4-yl)amino)phenyl)-2-(1-oxoisoindolin-2-yl)-2-phenylacetamide], the figures for the half-inhibitory concentration (IC50) (at EGFR(WT); at EGFR L858R/T790M (LR/TM); in data set [1]) were 4.6 ± 2.8 nM, 8.6 ± 2.1 nM and 7.9 ± 2 nM, respectively.

With `COc1cc2c(Nc3ccc(NC(=O)[C@@H](c4ccccc4)N4Cc5ccccc5C4=O)cc3F)ncnc2cc1OCC1CCN(C)CC1` [Example 20, (R)—N-(3-Fluoro-4-((6-methoxy-7-((1-methylpiperidin-4-yl)methoxy)quinazolin-4-yl)amino)phenyl)-2-(1-oxoisoindolin-2-yl)-2-phenylacetamide], the 50% inhibitory concentration (IC50) against EGFR(WT) worked out at 3.5 ± 1 nM; against EGFR L858R/T790M (LR/TM), 6.4 ± 1.6 nM; in data set [1] it was 19.2 ± 3.2 nM.

In the case of `COc1cc2c(Nc3ccc(NC(=O)C(C4CCCCC4)N4Cc5ccccc5C4=O)cc3F)ncnc2cc1OCC1CCN(C)CC1` (stereo not drawn) [Example 21, 2-cyclohexyl-N-(3-fluoro-4-((6-methoxy-7-((1-methylpiperidin-4-yl)methoxy)quinazoline-4-yl)amino)phenyl)-2-(1-oxoisoindolin-2-yl)acetamide], the half-maximal inhibitory concentration (IC50) at EGFR(WT) came out at 27.1 ± 12 nM; at EGFR L858R/T790M (LR/TM), 180 ± 94.9 nM; in data set [1] it was 361 ± 123 nM.

As for `COc1cc2c(Nc3ccc(NC(=O)C(c4cccc(F)c4)N4Cc5ccccc5C4=O)cc3F)ncnc2cc1OCC1CCN(C)CC1` (stereo not drawn) [Example 22, N-(3-Fluoro-4-((6-methoxy-7-((1-methylpiperidin-4-yl)methoxy)quinazolin-4-yl)amino)phenyl)-2-(3fluorophenyl)-2-(1-oxoisoindolin-2-yl)acetamide], the values for the half-maximal inhibitory concentration (IC50) (against EGFR(WT); on EGFR L858R/T790M (LR/TM); in data set [1]) were 2 ± 0.5 nM, 6.7 ± 2.2 nM and 13.4 ± 2.7 nM, respectively.

As for `COc1cc2ncnc(Nc3ccc(NC(=O)C(c4ccccc4)N4Cc5ccccc5C4=O)cc3F)c2cc1OCC1CCN(C)CC1` (stereo not drawn) [Example 23], the IC50 against EGFR(WT) was 0.8 ± 0.3 nM; against EGFR L858R/T790M (LR/TM) it was 2.4 ± 0.5 nM; in data set [1], 18 ± 8.6 nM.

For the compound `COc1cc2ncnc(Nc3ccc(NC(=O)C(c4ccccc4)N4Cc5ccccc5C4=O)cc3F)c2cc1OCN1CCN(C)CC1` (stereo not drawn) [Example 24], the figures for the half-maximal inhibitory concentration (IC50) (at EGFR(WT); at EGFR L858R/T790M (LR/TM); in data set [1]) were 1 ± 0.2 nM, 4.8 ± 0.7 nM and 19.1 ± 4.6 nM, respectively.

Take `COc1cc2ncnc(Nc3ccc(NC(=O)C(c4ccccc4)N4Cc5ccccc5C4=O)cc3F)c2cc1OCCCN1CCOCC1` (stereo not drawn) [Example 25, (3-Fluoro-4-((7-methoxy-6-(3-morpholinopropoxy)quinazolin-4-yl)amino)phenyl)-2-(1-oxoisoindolin-2-yl)-2-phenylacetamide]: the half-inhibitory concentration (IC50) turned out to be 1.6 ± 0.3 nM on EGFR(WT), 7.3 ± 1.3 nM at EGFR L858R/T790M (LR/TM) and 97.5 ± 12.9 nM in data set [1].

On to `COCCOc1cc2ncnc(Nc3ccc(NC(=O)C(c4ccccc4)N4Cc5ccccc5C4=O)cc3F)c2cc1OCCOC` (stereo not drawn) [Example 26, (4-((6,7-bis(2-methoxyethoxy)quinazolin-4-yl)amino)-3-fluorophenyl)-2-(1-oxoisoindolin-2-yl)-2-phenylacetamide], for which the half-maximal inhibitory concentration (IC50) against EGFR(WT) is 0.7 ± 0.1 nM; against EGFR L858R/T790M (LR/TM), 1.5 ± 0.2 nM; in data set [1] it was 8.5 ± 2.6 nM.

`COc1cc2nc(N)nc(Nc3ccc(NC(=O)C(c4ccccc4)N4Cc5ccccc5C4=O)cc3F)c2cc1OC` (stereo not drawn) [Example 27, (4-((2-amino-6,7-dimethoxyquinazolin-4-yl)amino)-3-fluorophenyl)-2-(1-oxoisoindoline-2-yl)-2-phenylacetamide]: the half-maximal inhibitory concentration (IC50) on EGFR(WT) is 388 ± 55.3 nM; against EGFR L858R/T790M (LR/TM), greater than 10000 nM; in data set [1] it was greater than 10000 nM.

Consider `COc1cc2c(Nc3ccc(NC(=O)C(c4cc(F)ccc4F)N4Cc5ccccc5C4=O)cc3F)ncnc2cc1OCC1CCN(C)CC1` (stereo not drawn) [Example 28, 2-(2,5-Difluorophenyl)-N-(3-fluoro-4-((6-methoxy-7-((1-methylpiperidin-4-yl)methoxy)quinazolin-4-yl)amino)phenyl)-2-(1-oxoisoindolin-2-yl)acetamide], for which the 50% inhibitory concentration (IC50) was 2.5 ± 0.8 nM against EGFR(WT), 35.3 ± 12.1 nM at EGFR L858R/T790M (LR/TM) and 27.5 ± 17.7 nM in data set [1].
